Test: in vitro
Conditions: human, hela cells, % viability
For `C[C@H](Nc1cncc(-c2cccc3ccccc23)n1)c1ccccc1` [CBK065654], the viability at 28.5 h, 10 µM was 93.6%.
For `N#Cc1ccccc1N1CCN(c2cncc(-c3cccs3)n2)CC1` [CBK065656], the viability at 28.5 h, 10 µM was 104%.
Molecule `CCNc1cncc(-c2ccc(N)cc2)n1` [CBK065658] has a viability at 28.5 h, 10 µM of 112%.
Work on `COc1cc(Nc2cncc(-c3cccs3)n2)cc(OC)c1OC` [CBK065663] yielded a viability at 28.5 h, 10 µM of 80.4%.
For `CN(C)CCN(C)c1cncc(-c2cccs2)n1` [CBK065679], the viability at 28.5 h, 10 µM was 108%.
`Nc1ccc(-c2cncc(N3CCN(c4ccncc4)CC3)n2)cc1` [CBK065681] gave a viability at 28.5 h, 10 µM of 97%.
`C[C@H](Nc1cncc(-c2ccc(F)cc2F)n1)c1ccccc1` [CBK065684] gave a viability at 28.5 h, 10 µM of 98.9%.
Work on `Fc1ccc(-c2cncc(Nc3ccc4c(c3)OC(F)(F)C(F)(F)O4)n2)c(F)c1` [CBK065692] yielded a viability at 28.5 h, 10 µM of 103%.
With `C[C@H](Nc1cncc(-c2cccc(N(C)C)c2)n1)c1ccccc1` [CBK065699] the viability at 28.5 h, 10 µM was 96.8%.
Work on `CCN(CC)CCN1CCN(c2cncc(-c3cccs3)n2)CC1` [CBK065703] yielded a viability at 28.5 h, 10 µM of 95.5%.
With `N#Cc1ccccc1N1CCN(c2cncc(-c3ccc(F)cc3F)n2)CC1` [CBK065708] the viability at 28.5 h, 10 µM was 102%.
With `C[C@H](Nc1cncc(-c2cccs2)n1)c1ccccc1` [CBK065719] the viability at 28.5 h, 10 µM was 93.5%.
In the case of `CCOc1ccc(-c2cncc(N[C@@H](C)c3ccccc3)n2)cc1` [CBK065720], the viability at 28.5 h, 10 µM is reported as 106%.
With `CN(C)CCN(C)c1cncc(-c2ccc(Cl)cc2)n1` [CBK065724] the viability at 28.5 h, 10 µM was 93%.
In the case of `CC(=O)Nc1ccc(-c2cncc(Nc3ccc4c(c3)OC(F)(F)C(F)(F)O4)n2)cc1` [CBK065726], the viability at 28.5 h, 10 µM is reported as 98.7%.
`FC1(F)Oc2ccc(Nc3cncc(-c4cccs4)n3)cc2OC1(F)F` [CBK065727] showed a viability at 28.5 h, 10 µM of 110%.
Work on `CCOc1ccc(-c2cncc(Nc3ccc4c(c3)OC(F)(F)C(F)(F)O4)n2)cc1` [CBK065728] yielded a viability at 28.5 h, 10 µM of 96.8%.
Work on `CN(C)c1cccc(-c2cncc(Nc3ccc(Cl)cc3)n2)c1` [CBK065738] yielded a viability at 28.5 h, 10 µM of 98.8%.
For `OCCN(CCO)c1cncc(-c2ccc(Cl)cc2)n1` [CBK065748], the viability at 28.5 h, 10 µM was 95.2%.
`FC(F)(F)c1cccc(Nc2cncc(-c3cccs3)n2)c1` [CBK065750] showed a viability at 28.5 h, 10 µM of 125%.
`CCN(CC)CCN1CCN(c2cncc(-c3cccc(N)c3)n2)CC1` [CBK065751] showed a viability at 28.5 h, 10 µM of 97.2%.
Molecule `CCC(CO)Nc1cncc(-c2cccc(F)c2)n1` (stereo not shown) [CBK065752] has a viability at 28.5 h, 10 µM of 96.1%.
With `Fc1ccc(-c2cncc(Nc3cccc(C(F)(F)F)c3)n2)c(F)c1` [CBK065763] the viability at 28.5 h, 10 µM was 92.5%.
For `CC(=O)Nc1ccc(-c2cncc(Nc3ccc(F)c(Cl)c3)n2)cc1` [CBK065765], the viability at 28.5 h, 10 µM was 96.1%.
With `CCOc1ccc(-c2cncc(NCCc3ccncc3)n2)cc1` [CBK065774] the viability at 28.5 h, 10 µM was 94.6%.
Molecule `CCC(CO)Nc1cncc(-c2ccccc2CO)n1` (stereo not shown) [CBK065775] has a viability at 28.5 h, 10 µM of 103%.
In the case of `CCC(CO)Nc1cncc(-c2cccc(C(F)(F)F)c2)n1` (stereo not shown) [CBK065783], the viability at 28.5 h, 10 µM is reported as 99.4%.
Work on `O=C(NCCO)c1cccc(-c2cncc(N3CCN(Cc4ccccn4)CC3)n2)c1` [CBK065784] yielded a viability at 28.5 h, 10 µM of 90.1%.
For `CN(C)c1cccc(-c2cncc(Nc3cccc(C(F)(F)F)c3)n2)c1` [CBK065786], the viability at 28.5 h, 10 µM was 100%.
`CC(=O)Nc1ccc(-c2cncc(N(CCO)CCO)n2)cc1` [CBK065789] gave a viability at 28.5 h, 10 µM of 106%.
With `COc1ccc(C(C)C)cc1-c1cncc(N2CCN(Cc3ccccn3)CC2)n1` [CBK065792] the viability at 28.5 h, 10 µM was 88.6%.
`CCOc1ccc(-c2cncc(Nc3cccc(C(F)(F)F)c3)n2)cc1` [CBK065798] showed a viability at 28.5 h, 10 µM of 50%.
For `Clc1ccc(Nc2cncc(-c3cccs3)n2)cc1` [CBK065805], the viability at 28.5 h, 10 µM was 107%.
`Nc1cccc(-c2cncc(N(CCO)CCO)n2)c1` [CBK065808] showed a viability at 28.5 h, 10 µM of 95.5%.
For `Fc1ccc(-c2cncc(NCCc3ccncc3)n2)c(F)c1` [CBK065810], the viability at 28.5 h, 10 µM was 104%.
`OCCN(CCO)c1cncc(-c2cccc3ccccc23)n1` [CBK065812] showed a viability at 28.5 h, 10 µM of 84.5%.
With `O=C(c1ccco1)N1CCN(c2cncc(-c3ccc(F)cc3F)n2)CC1` [CBK065818] the viability at 28.5 h, 10 µM was 93.7%.
With `Fc1ccc(-c2cncc(NCc3ccco3)n2)c(F)c1` [CBK065834] the viability at 28.5 h, 10 µM was 91.9%.
In the case of `OC1CCC(Nc2cncc(-c3ccc(F)cc3F)n2)CC1` (stereo not shown) [CBK065835], the viability at 28.5 h, 10 µM is reported as 107%.
`CCCNc1cncc(-c2ccc(OCC)cc2)n1` [CBK065845] showed a viability at 28.5 h, 10 µM of 99.8%.
`OCCCNc1cncc(-c2ccc(F)cc2F)n1` [CBK065851] showed a viability at 28.5 h, 10 µM of 96.1%.
Work on `CCOc1ccc(-c2cncc(Nc3ccc(C#N)cc3)n2)cc1` [CBK065862] yielded a viability at 28.5 h, 10 µM of 87.2%.
`Fc1ccc(-c2cncc(NCCCN3CCOCC3)n2)c(F)c1` [CBK065867] showed a viability at 28.5 h, 10 µM of 91.3%.
Molecule `CC(C)[C@@H](CO)Nc1cncc(-c2ccc(F)cc2F)n1` [CBK065875] has a viability at 28.5 h, 10 µM of 98.5%.
Work on `CCOc1ccc(-c2cncc(NCCc3c[nH]c4ccccc34)n2)cc1` [CBK065876] yielded a viability at 28.5 h, 10 µM of 93%.
`OCC1CCCN1c1cncc(-c2ccc(F)cc2F)n1` (stereo not shown) [CBK065891] gave a viability at 28.5 h, 10 µM of 112%.
`CN(C)CCN(C)c1cncc(-c2ccc3c(c2)OCO3)n1` [CBK065897] showed a viability at 28.5 h, 10 µM of 101%.
Molecule `O=C(O)C1CCN(c2cncc(-c3ccc(F)cc3F)n2)CC1` [CBK065899] has a viability at 28.5 h, 10 µM of 95.2%.
Work on `OC1CCC(Nc2cncc(-c3cccc4ccccc34)n2)CC1` (stereo not shown) [CBK065902] yielded a viability at 28.5 h, 10 µM of 90.2%.
In the case of `FC(F)(F)Oc1cccc(-c2cncc(NCc3cccs3)n2)c1` [CBK065909], the viability at 28.5 h, 10 µM is reported as 97.5%.
`COc1cc(CNc2cncc(-c3ccc4c(c3)OCO4)n2)cc(OC)c1OC` [CBK065922] gave a viability at 28.5 h, 10 µM of 99.5%.
`c1coc(CNc2cncc(-c3ccc4c(c3)OCO4)n2)c1` [CBK065930] gave a viability at 28.5 h, 10 µM of 101%.
`C[C@@H](Nc1cncc(-c2ccc3c(c2)OCO3)n1)c1ccccc1` [CBK065954] showed a viability at 28.5 h, 10 µM of 108%.
With `CCOc1cccc(-c2cncc(N(C)CCN(C)C)n2)c1` [CBK065977] the viability at 28.5 h, 10 µM was 102%.
`CN1CCCN(c2cncc(-c3ccc4c(c3)OCO4)n2)CC1` [CBK065978] gave a viability at 28.5 h, 10 µM of 91.7%.
`OCCNc1cncc(-c2ccc3c(c2)OCO3)n1` [CBK065979] showed a viability at 28.5 h, 10 µM of 85.6%.
For `CN1CCCN(c2cncc(-c3cc4ccccc4o3)n2)CC1` [CBK065997], the viability at 28.5 h, 10 µM was 93%.
`Fc1ccc(CNc2cncc(-c3cc4ccccc4o3)n2)cc1` [CBK066005] showed a viability at 28.5 h, 10 µM of 122%.
`CC(=O)Nc1ccc(-c2cncc(Nc3ccc(C#N)cc3)n2)cc1` [CBK066009] gave a viability at 28.5 h, 10 µM of 97.5%.
`OCCN(CCO)c1cncc(-c2ccc(F)c(Cl)c2)n1` [CBK066015] gave a viability at 28.5 h, 10 µM of 96.3%.
Work on `CCOc1cccc(-c2cncc(NC(C)CCCC(C)(C)O)n2)c1` (stereo not shown) [CBK066020] yielded a viability at 28.5 h, 10 µM of 95.6%.
Molecule `CN(C)CCN(C)c1cncc(-c2cc3ccccc3o2)n1` [CBK066028] has a viability at 28.5 h, 10 µM of 92.7%.
For `CC(C)(CO)CNc1cncc(-c2cc3ccccc3o2)n1` [CBK066029], the viability at 28.5 h, 10 µM was 91.1%.
Molecule `OC1CCC(Nc2cncc(-c3cccc(Cl)c3)n2)CC1` (stereo not shown) [CBK066031] has a viability at 28.5 h, 10 µM of 91%.
For `c1ccc(CCNc2cncc(-c3cc4ccccc4o3)n2)nc1` [CBK066036], the viability at 28.5 h, 10 µM was 96.5%.
`CCOc1cccc(-c2cncc(N[C@H](C)c3ccccc3)n2)c1` [CBK066042] gave a viability at 28.5 h, 10 µM of 103%.
`O=C(c1ccco1)N1CCN(c2cncc(-c3cc4ccccc4o3)n2)CC1` [CBK066044] gave a viability at 28.5 h, 10 µM of 101%.

— article PMC12040169 (PLOS Biology, 2025)
